From patent US5223169A, “Hydrolase surfactant systems and their use in laundering” (priority 1991, dated 1993)

Experiments:
Assay in all cases: pH-stat assay of triglyceride emulsion hydrolysis; critical oil-to-surfactant ratio
[1] = tested on: Enzyme Amano 68S; assay type: biochemical, P. sp.; settings: for Critical Ratio / Enzyme Activity: surfactant conc.: SDS 1 mM
From the text: (§1) To determine the critical ratio for any specific enzyme-surfactant combination, aliquots of an aqueous solution, each containing a determined (constant) amount of the enzyme which is effective in the absence of any surfactant to hydrolyze the triglycerides in an oily stain on a determined (constant) amount of a fabric soiled by a determined (constant) amount of a triglyceride oil, are mixed with a determined (constant) amount of a surfactant which is within the range of the amounts conventionally present in home laundry solutions, e.g., from about 0.2 to 1.5. mM, and which is effective to inhibit the hydrolyzing activity of the enzyme. To the aliquots are added a hydrolysis activator, e.g., trioctanoin, in increasing amounts and the hydrolyzing activity of the enzyme in the various solutions is determined.
(§2) The experiments determining enzyme activity, such as those set out in Tables IA and IB, were carried out as follows:
(§3) The desired amount of triglyceride was weighed into an appropriate size beaker, on a Mettler balance (model number AE163). The corresponding amount of surfactant was added to the triglyceride, from a previously prepared aqueous surfactant stock solution, and the triglyceride and surfactant mixed manually. The sample was then adjusted to the desired weight using doubly distilled H2 O. Emulsification of the sample was carried out, prior to assaying enzyme activity, with a probe sonicator (Braun-Sonic model 2000), on ice, for approx. 2 minutes.
(§4) (ii) Enzyme Activity Measurement:
(§5) This was achieved by monitoring the rate of acid liberation, from the enzymatic hydrolysis of the triglycerides in the emulsion. The assay was initiated by adding approx. 2 ppm lipase to 10 ml of the prepared emulsion. The acid liberated was monitored by autotitration, on a Radiometer pH-stat (model number ABU80) to an endpoint of a pH of 10. Initial rates were recorded for the first 5 minutes of the reaction, and the reaction rates reported as μmole H^+ titrated . min ^-1 mgE^-1. Occasionally enzyme activity is reported as % total oil hydrolyzed in 14 min. In these examples, the reaction was allowed to run for 14 min. and the amount of acid titrated recorded. The % total oil (triglyceride) hydrolyzed was then calculated by dividing the recorded value with the theoretically calculated value assuming three equivalents of oleic acid was produced for each triglyceride equivalent. All assays were run at ambient temperatures.

[2] = target: T1, Enzyme Amano P (Burkholderia cepacia, UniProt P22088); assay type: biochemical, P. fluorescens
T1 construct: purchased Amano Co
From the text: as §1, §2, §3, §4, §5

[3] = target: T2, Enzyme Lipolase (Thermomyces lanuginosus, UniProt O59952); assay type: biochemical, A. oryzae; settings: for Critical Ratio, LIPOLASE: trioctanoin emulsions, lipase ~2 ppm; for R, critical (minimum activating molar) ratio, LIPOLASE: triolein emulsions
T2 construct: purchased Novo Industri; host or cells: Aspergillus oryzae
T2 sequence (O59952 23-291): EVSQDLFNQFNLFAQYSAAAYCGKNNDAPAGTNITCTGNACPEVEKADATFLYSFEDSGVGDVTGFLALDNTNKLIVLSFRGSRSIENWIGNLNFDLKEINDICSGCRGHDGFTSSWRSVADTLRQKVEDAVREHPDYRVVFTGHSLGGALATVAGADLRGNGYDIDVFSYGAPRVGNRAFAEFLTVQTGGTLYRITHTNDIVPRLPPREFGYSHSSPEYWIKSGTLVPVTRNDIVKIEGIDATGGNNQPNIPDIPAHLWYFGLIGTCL
From the text: as §1, §2, §3, §4, §5

[4] = tested on: enzyme from P. putida ATCC 53552 (lipase GC-1065); assay type: biochemical, Pseudomonas putida
From the text: as §1, §2, §3, §4, §5

[5] = Table IV, trioctanoin, C12 LAS 0.2 mM, Neodol 25-3S 0.5 mM, Neodol 25-9 0.5 mM, Surfonic JL80X 0.5 mM
[6] = Table Summary, second block of lines (corresponds to triolein Tables VI-IX)
[7] = Table VIII, triolein, C12 LAS 0.5 mM, Neodol 25-3S 0.5 mM, Neodol 25-9 0.5 mM, Surfonic JL80X 2.5 mM
[8] = Table III, trioctanoin, surfactant conc.: SDS 2 mM, C12 LAS 1 mM, Neodol 25-3S 2 mM, Neodol 25-9 0.5 mM, Surfonic JL80X 0.5 mM
[9] = triolein emulsions, high conc.: SDS 10 mM, C12 LAS 5 mM, Neodol 25-9 5 mM, Neodol 25-3S 5 mM, Surfonic JL-80X 2.5 mM
[10] = Table II, trioctanoin, surfactant conc.: SDS 2 mM, C12 LAS 1 mM, Neodol 25-3S 2 mM, Neodol 25-9 0.5 mM, Surfonic JL80X 0.5 mM, Triton X100 2 mM
[11] = Table VI, triolein, surfactant conc.: SDS 1 mM, C12 LAS 0.5 mM, Neodol 25-3S 1 mM, Neodol 25-9 0.5 mM, Surfonic JL80X 0.5 mM

T1 sequence (P22088 45-364): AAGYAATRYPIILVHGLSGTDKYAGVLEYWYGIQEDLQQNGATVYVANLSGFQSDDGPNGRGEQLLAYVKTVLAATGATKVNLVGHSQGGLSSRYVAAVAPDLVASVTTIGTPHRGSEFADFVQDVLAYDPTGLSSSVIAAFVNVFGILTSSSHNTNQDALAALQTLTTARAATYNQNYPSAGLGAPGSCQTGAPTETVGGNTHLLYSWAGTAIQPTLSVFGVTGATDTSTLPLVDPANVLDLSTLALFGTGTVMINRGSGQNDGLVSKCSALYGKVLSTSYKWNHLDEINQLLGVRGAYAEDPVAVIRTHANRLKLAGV

Question: With `CCCCCCCCCCCCc1ccc(S(=O)(=O)O)cc1` [C12 LAS] as the compound, how does the “Critical Ratio” value [1, 5] read?
Answer: Its value is 5-10.

Question: And the “Enzyme Activity” value [1, 5]?
Answer: The value was 175 μmole H^+ released min^-1 mgE^.

Question: And the “critical ratio class, Amano 68S” value [1, 6]?
Answer: The value was “- (means a critical ratio of 10-100)”.

Question: And the “Critical Ratio” value [1, 7]?
Answer: The value was 10-20.

Question: What about the “Enzyme Activity” value [1, 7] of the same compound?
Answer: Its value is 30 μmole H^+ released min^-1 mgE^.

Question: What about the “Specific Activity determined from initial rates, AMANO 68S, High” value ([1]; trioctanoin emulsions, high surfactant conc. as E45) of the same compound?
Answer: The value was 200 μeq acid/min.mg.

Question: What about the “Critical Ratio, AMANO 68S, High” value ([1]; trioctanoin emulsions, lipase ~2 ppm, high conc.: SDS 10 mM, C12 LAS 2 mM, Neodol 25-9 5 mM, Neodol 25-3S 10 mM, Surfonic JL-80X 5 mM) of the same compound?
Answer: The value was 1-5.

Question: What about the “Critical Ratio, AMANO 68S, Low” value ([1]; trioctanoin emulsions, lipase ~2 ppm, low conc.: SDS 1 mM, C12 LAS 0.2 mM, Neodol 25-9 0.5 mM, Neodol 25-3S 0.5 mM, Surfonic JL-80X 0.5 mM) of the same compound?
Answer: Its value is 5-10.

Question: What about the “Specific Activity determined from initial rates, AMANO 68S, Low” value ([1]; trioctanoin emulsions, low surfactant conc. as E44) of the same compound?
Answer: The value was 175 μeq acid/min.mg.

Question: What about the “Activity (specific hydrolysis activity from initial rates), AMANO 68S, High” value ([1]; triolein emulsions, high conc. as E59) of the same compound?
Answer: The value was 55 μeq acid/min./mg.

Question: And the “R, critical (minimum activating molar) ratio, AMANO 68S, High” value ([1]; triolein emulsions, high conc.: SDS 10 mM, C12 LAS 5 mM, Neodol 25-9 5 mM, Neodol 25-3S 5 mM, Surfonic JL-80X 2.5 mm)?
Answer: Its value is 10-20.

Question: What about the “Activity (specific hydrolysis activity from initial rates), AMANO 68S, Low” value ([1]; triolein emulsions, low conc. as E58) of the same compound?
Answer: The value was 30 μeq acid/min./mg.

Question: What about the “R, critical (minimum activating molar) ratio, AMANO 68S, Low” value ([1]; triolein emulsions, low conc.: SDS 1 mM, C12 LAS 0.5 mM, Neodol 25-9 0.5 mM, Neodol 25-3S 0.5 mM, Surfonic JL-80X 2.5 mM) of the same compound?
Answer: Its value is 10-20.

Question: And the “Critical Ratio” value [2, 8]?
Answer: Its value is 5-20.

Question: And the “Enzyme Activity” value [2, 8]?
Answer: Its value is 70 μmole H^+ released min^-1 mgE^.

Question: And the “critical ratio class, Amano P” value [2, 6]?
Answer: The value was “- (means a critical ratio of 10-100)”.

Question: And the “Enzyme Activity” value ([2]; Table VII, triolein, surfactant conc.: SDS 1 mM, others 0.5 mM)?
Answer: The value was 13 μmole H^+ released min^-1 mgE^.

Question: What about the “Specific Activity determined from initial rates, AMANO P, High” value ([2]; trioctanoin emulsions, high surfactant conc. as E43) of the same compound?
Answer: Its value is 70 μeq acid/min.mg.

Question: And the “Critical Ratio, AMANO P, High” value ([2]; trioctanoin emulsions, lipase ~2 ppm, high conc.: SDS 10 mM, C12 LAS 5 mM, Neodol 25-9 5 mM, Neodol 25-3S 20 mM, Surfonic JL-80X 5 mM)?
Answer: Its value is 5-10.

Question: What about the “Critical Ratio, AMANO P, Low” value ([2]; trioctanoin emulsions, lipase ~2 ppm, low conc.: SDS 2 mM, C12 LAS 1 mM, Neodol 25-9 0.5 mM, Neodol 25-3S 2.0 mM, Surfonic JL-80X 0.5 mM) of the same compound?
Answer: Its value is 5-10.

Question: And the “Specific Activity determined from initial rates, AMANO P, Low” value ([2]; trioctanoin emulsions, low surfactant conc. as E42)?
Answer: Its value is 70 μeq acid/min.mg.

Question: What about the “Activity (specific hydrolysis activity from initial rates), AMANO P, High” value ([2]; triolein emulsions, high conc. as E57) of the same compound?
Answer: The value was 26 μeq acid/min./mg.

Question: What about the “R, critical (minimum activating molar) ratio, AMANO P, High” value [2, 9] of the same compound?
Answer: The value was 10-20.

Question: And the “Activity (specific hydrolysis activity from initial rates), AMANO P, Low” value ([2]; triolein emulsions, low conc. as E56)?
Answer: Its value is 13 μeq acid/min./mg.

Question: What about the “R, critical (minimum activating molar) ratio, AMANO P, Low” value ([2]; triolein emulsions, low conc.: SDS 1 mM, others 0.5 mM) of the same compound?
Answer: Its value is 10-20.

Question: And the “Critical Ratio” value ([3]; Table IX, triolein, C12 LAS 0.5 mM)?
Answer: Its value is 30-40.

Question: What about the “critical ratio class, Lipolase” value [3, 6] of the same compound?
Answer: Its value is “- (means a critical ratio of 10-100)”.

Question: What about the “Critical Ratio” value ([3]; Table V, trioctanoin, each surfactant 0.5 mM) of the same compound?
Answer: The value was 0.5-1.

Question: What about the “Critical Ratio, LIPOLASE” value ([3]; surfactant 0.5 mM) of the same compound?
Answer: The value was 0.5-1.

Question: What about the “Critical Ratio, LIPOLASE” value ([3]; surfactant 5 mM) of the same compound?
Answer: The value was 0.5-1.

Question: What about the “R, critical (minimum activating molar) ratio, LIPOLASE” value ([3]; surfactant 0.5 mM) of the same compound?
Answer: Its value is 30-40.

Question: And the “R, critical (minimum activating molar) ratio, LIPOLASE” value ([3]; surfactant 5.0)?
Answer: The value was 40-50.

Question: And the “Critical Ratio” value [4, 10]?
Answer: Its value is 5-10.

Question: And the “Enzyme Activity” value [4, 10]?
Answer: The value was 250 μmole H^+ released min^-1 mgE^.

Question: And the “critical ratio class, enzyme From ATCC 53552” value [4, 6]?
Answer: The value was 0 (means a critical ratio of 1.0-10).

Question: And the “Critical Ratio” value [4, 11]?
Answer: The value was 5-10.

Question: And the “Enzyme Activity” value [4, 11]?
Answer: Its value is 50 μmole H^+ released min^-1 mgE^.

Question: What about the “Critical Ratio” value ([4]; Table XVIII, triolein, Pseudomonas putida enzyme, surfactant 0.5 mM) of the same compound?
Answer: The value was 5-10.

Question: What about the “Critical Ratio” value ([4]; Table XVIII, triolein, Pseudomonas putida enzyme, surfactant 5.0 mM) of the same compound?
Answer: Its value is 1-5.

Question: And the “Specific Activity determined from initial rates, GC-1065, High” value ([4]; trioctanoin emulsions, high surfactant conc. as E41)?
Answer: The value was 250 μeq acid/min.mg.

Question: What about the “Critical Ratio, GC-1065, High” value ([4]; trioctanoin emulsions, lipase ~2 ppm, high surfactant conc.: SDS 10 mM, C12 LAS 5 mM, Neodol 25-9 5 mM, Neodol 25-3S 10 mM, Surfonic JL-80X 5 mM, Triton X-100 10 mM, C16 DAPS 10 mM) of the same compound?
Answer: Its value is 5-10.

Question: What about the “Critical Ratio, GC-1065, Low” value ([4]; trioctanoin emulsions, lipase ~2 ppm, low surfactant conc.: SDS 2 mM, C12 LAS 1 mM, Neodol 25-9 0.5 mM, Neodol 25-3S 2 mM, Surfonic JL-80X 0.5 mM, Triton X-100 2 mM, C16 DAPS 0.5 mM) of the same compound?
Answer: Its value is 2-10.

Question: And the “Specific Activity determined from initial rates, GC-1065, Low” value ([4]; trioctanoin emulsions, low surfactant conc. as E40)?
Answer: Its value is 250 μeq acid/min.mg.

Question: What about the “Activity (specific hydrolysis activity from initial rates), GC-1065, High” value ([4]; triolein emulsions, high conc. as E55) of the same compound?
Answer: The value was 60 μeq acid/min./mg.

Question: And the “R, critical (minimum activating molar) ratio, GC-1065, High” value [4, 9]?
Answer: Its value is 1-5.

Question: What about the “Activity (specific hydrolysis activity from initial rates), GC-1065, Low” value ([4]; triolein emulsions, low conc. as E54) of the same compound?
Answer: Its value is 50 μeq acid/min./mg.

Question: What about the “R, critical (minimum activating molar) ratio, GC-1065, Low” value ([4]; triolein emulsions, low conc.: SDS 1 mM, C12 LAS 0.5 mM, Neodol 25-9 0.5 mM, Neodol 25-3S 1 mM, Surfonic JL-80X 0.5 mM) of the same compound?
Answer: Its value is 5-10.
